Results reported in paper PMC9783881, “Synthesis and Preclinical Evaluation of Small-Molecule Prostate-Specific Membrane Antigen-Targeted Abiraterone Conjugate” (Molecules, 2022).

Molecular target: T1, cytochrome P450 1A2 (Homo sapiens, UniProt P05177)
T1 construct: isoenzyme activity in human liver microsomes using conventional sample substrates and HPLC-MS/MS detection; from tissue; host or cells: human liver microsomes
T1 sequence (P05177 1-516): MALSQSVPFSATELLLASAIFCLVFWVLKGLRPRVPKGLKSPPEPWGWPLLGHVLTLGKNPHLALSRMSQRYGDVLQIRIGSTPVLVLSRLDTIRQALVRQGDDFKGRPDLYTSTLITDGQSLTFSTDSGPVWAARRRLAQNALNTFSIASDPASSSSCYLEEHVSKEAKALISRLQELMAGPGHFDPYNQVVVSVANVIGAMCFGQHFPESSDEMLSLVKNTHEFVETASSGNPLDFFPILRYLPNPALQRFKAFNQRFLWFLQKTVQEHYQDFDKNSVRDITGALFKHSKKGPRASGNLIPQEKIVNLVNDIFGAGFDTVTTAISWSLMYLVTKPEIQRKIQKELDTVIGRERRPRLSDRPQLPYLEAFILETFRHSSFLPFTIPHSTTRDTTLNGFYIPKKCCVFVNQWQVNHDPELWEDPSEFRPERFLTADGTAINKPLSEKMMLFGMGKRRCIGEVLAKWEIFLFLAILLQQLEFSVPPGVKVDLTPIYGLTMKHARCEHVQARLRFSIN
Test: Cytochrome inhibition in human liver microsomes, 1A2
Format: in vitro ADME
Settings: substrate Phenacetin, read-out: IC50, 1A2 (PSMA-Abi)
Excerpt: To assess the effect of drugs on liver cytochrome activity in drug development, test systems with recombinant enzymes and fluorescent substrates as well as microsomes with metabolic substrates and HPLC-MS/MS analysis were used. The present study aimed to investigate the effect of targeted delivery drugs specific to malignant prostate cells on cytochrome P450 (CYP450) isoenzyme activity in human liver microsomes using conventional sample substrates and HPLC-MS/MS detection. Detailed methodological parameters are described in the Supplementary Material.

C[C@]12CC[C@H](OC(=O)CCCc3cn(CCCNC(=O)[C@H](Cc4ccc(O)cc4)NC(=O)[C@H](Cc4ccccc4)NC(=O)CCC(=O)NCCCCCC(=O)N(CCCC[C@H](NC(=O)N[C@@H](CCC(=O)O)C(=O)O)C(=O)O)Cc4cccc(Cl)c4)nn3)CC1=CC[C@@H]1[C@@H]2CC[C@]2(C)C(c3cccnc3)=CC[C@@H]12 [PSMA-Abi]
IC50: 4.5 ± 1.1 µM
